Laboratory results published in US8309735B2, “Heterocyclic compounds for the inhibition of integrins and use thereof” (Shire Orphan Therapies GmbH, priority 2006, dated 2012).

Legend:
[1] = target: T1, integrin alpha5beta1 extracellular domain Fc-fusion (Homo sapiens, UniProt P05556+P08648); assay: alpha5beta1 - Fibronectin Binding Assay (competitive ELISA); conditions: inhibition of integrin binding to fibronectin
T1 construct: The integrin alpha5beta1 extracellular domain Fc-fusion was expressed and purified as described; made in house
Method: (§1) The optimal concentrations of integrin and ligand were selected from ELISA binding studies with variable concentrations of both to obtain optimal signal noise ratio for further studies. IC50 studies were performed with fixed concentration of ligand and integrin and a serial dilution of inhibitor. The plates were measured with SpectraMax Plus reader (Molecular Devices). The resulting inhibition curves were analyzed using SoftMaxPro 4.0 software, the turning point describes the IC50 value.
(§2) Fibronectin was purchased from Sigma and fibrinogen from Calbiochem. (EMD Biosciences, Darmstadt, Germany). The integrin alpha5beta1 extracellular domain Fc-fusion was expressed and purified as described (Coe, 2001, J. Biol. Chem., 276, 35854). Integrin alphaIIbbeta3 was purchased form Kordia (Kordia Life Science, Leiden, Netherlands)
1.1. alpha5beta1—Fibronectin Binding Assay
Fibronectin was diluted with coating buffer (15 mM Na2CO3, 35 mM NaHCO3, pH 9.6) and coated with 100 μL/well to Nunc-Immuno maxisorp plates (Nalge Nunc Europe Ltd) over night at 4° C. After discarding the coating solution plates were washed 3 times with buffer 1 (25 mM Tris, pH 7.6, 150 mM NaCl, 1 mM MnCl2, 1 mg/ml BSA) and blocked with 100 μL blocking buffer (3% BSA in PBS 0.1% Tween20) for 1 hour at room temperature. After washing the blocked plates (3 times) with buffer 1, integrin (50 μL) and either inhibitor (serial dilution in buffer 1) or buffer 1 (50 μL) were added to the wells and incubated for one hour at RT. Plates were then washed (3 times) with buffer 1 and incubated with 100 μL of anti-human-Fc-HRP antibody conjugate (Sigma-Aldrich, Taufkirchen, Germany) in buffer 1 for 1 hour at RT. After additional washing steps (3 times) with buffer 150 μL of HRP substrate solution TMB (Seramun, Germany) were added to the wells. Color development was stopped after 3-5 minutes with 50 μL 1 M H2SO4. The developed color was measured at 450 nm and analyzed as described above.

Integrin alphaIIbbeta3 = target: T2, Integrin alphaIIbbeta3 (Homo sapiens, UniProt P05106+P08514); assay: alphaIIbbeta3 - Fibrinogen Binding Assay (competitive ELISA); conditions: inhibition of integrin binding to fibrinogen, read-out: IC50 alphabIIbbeta3
T2 construct: purchased Kordia (Kordia Life Science, Leiden, Netherlands)
T2 sequence (P08514 32-887 limits assumed): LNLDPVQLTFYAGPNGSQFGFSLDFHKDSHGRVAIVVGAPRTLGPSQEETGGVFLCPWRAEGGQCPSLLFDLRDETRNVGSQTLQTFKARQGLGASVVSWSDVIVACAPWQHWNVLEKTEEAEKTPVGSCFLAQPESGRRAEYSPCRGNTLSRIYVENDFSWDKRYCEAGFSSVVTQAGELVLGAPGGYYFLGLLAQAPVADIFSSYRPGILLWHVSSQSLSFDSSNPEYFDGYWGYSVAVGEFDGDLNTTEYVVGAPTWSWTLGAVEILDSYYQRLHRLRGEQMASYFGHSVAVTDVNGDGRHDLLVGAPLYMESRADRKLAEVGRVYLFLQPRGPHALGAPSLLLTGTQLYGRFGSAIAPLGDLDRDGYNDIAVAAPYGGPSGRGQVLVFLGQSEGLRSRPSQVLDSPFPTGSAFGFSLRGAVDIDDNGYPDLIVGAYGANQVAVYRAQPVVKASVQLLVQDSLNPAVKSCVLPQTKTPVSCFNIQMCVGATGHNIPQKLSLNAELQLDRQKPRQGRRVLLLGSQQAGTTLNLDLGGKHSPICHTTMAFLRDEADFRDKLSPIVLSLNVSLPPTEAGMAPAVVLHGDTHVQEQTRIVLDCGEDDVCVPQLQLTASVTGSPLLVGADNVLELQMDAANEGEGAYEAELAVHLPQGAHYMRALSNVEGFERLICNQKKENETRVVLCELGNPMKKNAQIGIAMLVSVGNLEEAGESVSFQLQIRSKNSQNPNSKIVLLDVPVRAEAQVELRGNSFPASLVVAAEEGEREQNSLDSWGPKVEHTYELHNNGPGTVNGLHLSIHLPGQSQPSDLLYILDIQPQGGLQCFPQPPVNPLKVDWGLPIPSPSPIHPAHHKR
T2 sequence (P05106 27-788): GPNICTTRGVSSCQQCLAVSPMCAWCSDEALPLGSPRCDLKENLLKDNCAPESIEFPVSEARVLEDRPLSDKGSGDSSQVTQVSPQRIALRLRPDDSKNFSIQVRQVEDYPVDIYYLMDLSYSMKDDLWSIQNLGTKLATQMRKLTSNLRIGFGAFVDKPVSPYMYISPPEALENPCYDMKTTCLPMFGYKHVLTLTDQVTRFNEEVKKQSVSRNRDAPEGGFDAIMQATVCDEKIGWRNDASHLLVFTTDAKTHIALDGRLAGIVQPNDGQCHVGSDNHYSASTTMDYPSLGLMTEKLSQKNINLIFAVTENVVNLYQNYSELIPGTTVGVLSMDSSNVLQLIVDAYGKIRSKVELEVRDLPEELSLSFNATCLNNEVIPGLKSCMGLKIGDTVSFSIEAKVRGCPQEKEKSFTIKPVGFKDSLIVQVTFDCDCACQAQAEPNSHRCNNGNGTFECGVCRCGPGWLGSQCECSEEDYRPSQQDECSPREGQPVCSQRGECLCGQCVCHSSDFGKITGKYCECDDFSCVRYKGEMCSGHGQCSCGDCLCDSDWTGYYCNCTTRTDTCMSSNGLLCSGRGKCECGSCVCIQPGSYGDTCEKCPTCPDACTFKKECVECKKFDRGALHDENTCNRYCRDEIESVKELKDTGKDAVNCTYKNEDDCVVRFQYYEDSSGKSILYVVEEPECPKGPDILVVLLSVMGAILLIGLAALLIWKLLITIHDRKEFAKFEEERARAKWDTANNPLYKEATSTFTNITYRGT
Method: as §1, §2
1.2. alphaIIbbeta3—Fibrinogen Binding Assay
Fibrinogen was diluted with coating buffer (15 mM Na2CO3, 35 mM NaHCO3, pH 9.6) and coated with 100 μL/well to Nunc-Immuno maxisorp plates over night at 4° C. After discarding the coating solution plates were washed 3 times with buffer 1 (25 mM Tris, pH 7.6, 150 mM NaCl, 1 mM MnCl2, 1 mg/ml BSA) and blocked with 100 μL blocking buffer (3% BSA in PBS 0.1% Tween20) for 1 hour at room temperature. After washing the blocked plates (3 times) with buffer 1, integrin alphaIIbbeta3 (50 μL) and either inhibitor (serial dilution in buffer 3, 25 mM Tris, pH 7.6, 150 mM NaCl, 1 mM MnCl2, 1 mg/ml BSA 1 mM MgCl2, 1 mM CaCl2,) or buffer 3 (50 μL) were added to the wells and incubated for one hour at RT. Plates were then washed (3 times) with buffer 3 and incubated with 100 μL of anti-alphaIIbbeta3 antibody (anti CD41b, Pharmingen) in buffer 3 for 1 hour at RT. Plates were washed (3 times) with buffer 3 and incubated for 1 hour with 100 μL secondary antibody (anti-mouse-HRP conjugate, Sigma) in buffer 3. After additional washing steps (3 times) with buffer 3 50 μL of HRP substrate solution TMB (Seramun) were added to the wells. Color development was stopped after 3-5 minutes with 50 μL 1 M H2SO4. The developed color was measured at 450 nm and analyzed as described above.

IC50 [1] [nM]	IC50 (Integrin alphaIIbbeta3) [nM]	SMILES
< 100	> 1	Cc1ccnc(NCc2cc(-c3ccc(C[C@H](NC(=O)c4c(C)cc(C)cc4C)C(=O)O)cc3)on2)c1 [Compound 6, 3-(4-{3-[(4-Methyl-pyridin-2-ylamino)-methyl]-isoxazol-5-yl}-phenyl)-2-(2,4,6-trimethyl-benzoylamino)-propionic acid]
< 100	> 1	Cc1ccnc(NCc2cnc(-c3ccc(C[C@H](NC(=O)c4c(C)cc(C)cc4C)C(=O)O)cc3)s2)c1 [Compound 9, 3-(4-{5-[(4-Methyl-pyridin-2-ylamino)-methyl]-thiazol-2-yl}-phenyl)-2-(2,4,6-trimethyl-benzoylamino)-propionic acid]
< 100	> 1	Cc1ccnc(NCc2coc(-c3ccc(C[C@H](NC(=O)c4c(C)cc(C)cc4C)C(=O)O)cc3)c2)c1 [Compound 12, 3-(4-{4-[(4-Methyl-pyridin-2-ylamino)-methyl]-furan-2-yl}-phenyl)-2-(2,4,6-trimethyl-benzoylamino)-propionic acid]
< 100	> 1	Cc1ccnc(NCc2cn(-c3ccc(C[C@H](NC(=O)c4c(C)cc(C)cc4C)C(=O)O)cc3)nn2)c1 [Compound 15, 3-(4-{4-[(4-Methyl-pyridin-2-ylamino)-methyl]-[1,2,3]triazol-1-yl}-phenyl)-2-(2,4,6-trimethyl-benzoylamino)-propionic acid]
< 100	> 1	Cc1ccnc(NCc2csc(-c3ccc(C[C@H](NC(=O)c4c(C)cc(C)cc4C)C(=O)O)cc3)c2)c1 [Compound 19, 3-(4-{4-[(4-Methyl-pyridin-2-ylamino)-methyl]-thiophen-2-yl}-phenyl)-2-(2,4,6-trimethyl-benzoylamino)-propionic acid]
< 100	> 1	Cc1ccnc(NCc2ccn(-c3ccc(C[C@H](NC(=O)C4(C)CCCCC4)C(=O)O)cc3)c2)c1 [Compound 22, 2-[(1-Methyl-cyclohexanecarbonyl)-amino]-3-(4-{3-[(4-methyl-pyridin-2-ylamino)-methyl]-pyrrol-1-yl}-phenyl)-propionic acid]
< 100	> 1	Cc1cc(C)c(C(=O)N[C@@H](Cc2ccc(-n3cc(CNc4nc5ccccc5[nH]4)nn3)cc2)C(=O)O)c(C)c1 [Compound 29, 3-(4-{4-[(1H-Benzoimidazol-2-ylamino)-methyl]-[1,2,3]triazol-1-yl}-phenyl)-2-(2,4,6-trimethyl-benzoylamino)-propionic]
< 100	> 1	Cc1ccnc(NCc2coc(-c3ccc(C[C@H](NC(=O)c4c(C)cccc4C)C(=O)O)cc3)c2)c1 [Compound 35, 2-(2,6-Dimethyl-benzoylamino)-3-(4-{4-[(4-methyl-pyridin-2-ylamino)-methyl]-furan-2-yl}-phenyl)-propionic acid]
< 100	> 1	CCc1cccc(C)c1C(=O)N[C@@H](Cc1ccc(-c2cc(CNc3cc(C)ccn3)co2)cc1)C(=O)O [Compound 36, 2-(2-Ethyl-6-methyl-benzoylamino)-3-(4-{4-[(4-methyl-pyridin-2-ylamino)-methyl]-furan-2-yl}-phenyl)-propionic acid]
< 100	> 1	Cc1ccnc(NCc2coc(-c3ccc(C[C@H](NC(=O)c4c(C)cc(F)cc4C)C(=O)O)cc3)c2)c1 [Compound 37, 2-(4-Fluoro-2,6-dimethyl-benzoylamino)-3-(4-{4-[(4-methyl-pyridin-2-ylamino)-methyl]-furan-2-yl}-phenyl)-propionic acid]
